Assay results from patent US7763615B2, “Ecteinascidin analogs for use as antitumour agents” (priority 2001, dated 2010).
Like-named read-outs stand apart in the source and are kept apart here.

Tests used:
Format in all cases: cell-based
[1] = test system: HT29; assay: cells; settings: Homo sapiens, HT-29, 48 h
Text: (§1) The finality of these assays is to interrupt the growth of a “in vitro” tumor cell culture by means of a continued exhibition of the cells to the sample to be testing.
(§2) A colorimetric type of assay, using sulphorhodamine B (SRB) reaction has been adapted for a quantitative measurement of cell growth and viability [following the technique described by Philip Skehan, et al. (1990), New colorimetric cytotoxicity assay for anticancer drug screening, J. Natl. Cancer Inst., 82:1107-1112]
(§3) This form of the assay employs 96 well cell culture microplates of 9 mm diameter (Faircloth, 1988; Mosmann, 1983). Most of the cell lines are obtained from American Type Culture Collection (ATCC) derived from different human cancer types.
(§4) Cells are maintained in RPMI 1640 10% FBS, supplemented with 0.1 g/l penicillin and 0.1 g/l streptomycin sulphate and then incubated at 37° C., 5% CO2 and 98% humidity. For the experiments, cells were harvested from subconfluent cultures using trypsin and resuspended in fresh medium before plating.
(§5) Cells are seeded in 96 well microtiter plates, at 5×10^3 cells per well in aliquots of 195 μl medium, and they are allowed to attach to the plate surface by growing in drug free medium for 18 hours. Afterward, samples are added in aliquots of 5 μl in a ranging from 10 to 10^−8 μg/ml, dissolved in DMSO/EtOH/PBS (0.5:0.5:99). After 48 hours exposure, the antitumor effect are measured by the SRB methodology: cells are fixed by adding 50 μl of cold 50% (wt/vol) trichloroacetic acid (TCA) and incubating for 60 minutes at 4° C. Plates are washed with deionized water and dried. One hundred μl of SRB solution (0.4% wt/vol in 1% acetic acid) is added to each microtiter well and incubated for 10 minutes at room temperature. Unbound SRB is removed by washing with 1% acetic acid. Plates are air dried and bound stain is solubilized with Tris buffer. Optical densities are read on a automated spectrophotometric plate reader at a single wavelength of 490 nm.
(§6) The values for mean+/− SD of data from triplicate wells are calculated. Some parameters for cellular responses can be calculated: GI=growth inhibition, TGI=total growth inhibition (cytostatic effect) and LC=cell killing (cytotoxic effect).

[2] = test system: A549; assay: cells; settings: Homo sapiens, A549, 48 h; for GI50: read-out: GI50; for IC (TGI): read-out: TGI
Text: as §1, §2, §3, §4, §5, §6

[3] = test system: H-MEC-1; assay: Inhibition of cells growth by colorimetric assay (SRB), H-MEC-1; settings: Homo sapiens, H-MEC-1, 48 hours exposure, SRB; for GI50 / IC (TGI): HMEC-1, 48 h; for CC50: HMEC-1, read-out: LC50 (the source's name)
Text: as §1, §2, §3, §4, §5, §6

[4] = HT29, 48 hours exposure, SRB, read-out: LC50 (the source's name)
[5] = A549, 48 hours exposure, SRB, read-out: LC50 (the source's name)

SMILES	GI50 ([1]; HT29, 48 hours exposure, SRB)	IC (TGI) ([1]; HT29, 48 hours exposure, SRB)	CC50 [1, 4]	GI50 ([2]; A549, 48 hours exposure, SRB)	CC50 [2, 5]	IC (TGI) ([2]; A549, 48 hours exposure, SRB)	CC50 ([1]; read-out: LC50, HT29, 48 hours exposure, SRB)	CC50 ([2]; read-out: LC50, A549, 48 hours exposure, SRB)	GI50 [3]	IC (TGI) [3]	CC50 [3]
CCCC(=O)Oc1c(OC)c(C)cc2c1[C@@H]1C3[C@@H]4SC[C@]5(NCCc6c5[nH]c5ccccc65)C(=O)COC[C@@H](c5c6c(c(C)c(OC(C)=O)c54)OCO6)N3[C@@H](C#N)[C@H](C2)N1C (stereo partly drawn) [Compound 20]	0.596 µM	12 µM	12 µM	0.33 µM	6.77 µM	1.2 µM					
COc1c(C)cc2c(c1OC(=O)OC(C)(C)C)[C@@H]1C3[C@@H]4SC[C@]5(NCCc6c5[nH]c5ccccc65)C(=O)COC[C@@H](c5c6c(c(C)c(OC(C)=O)c54)OCO6)N3[C@@H](C#N)[C@H](C2)N1C (stereo partly drawn) [Compound 21]	1.18 µM	11.6 µM	11.6 µM	0.758 µM	11.6 µM	6.99 µM					
C=COC(=O)Oc1c(OC)c(C)cc2c1[C@@H]1C3[C@@H]4SC[C@]5(NCCc6c5[nH]c5ccccc65)C(=O)COC[C@@H](c5c6c(c(C)c(OC(C)=O)c54)OCO6)N3[C@@H](C#N)[C@H](C2)N1C (stereo partly drawn) [Compound 22]	0.12 µM	5.7 µM	12 µM	0.0393 µM	12 µM	0.12 µM					
C=COC(=O)Oc1c(OC)c(C)cc2c1[C@@H]1C3[C@@H]4SC[C@]5(C(=O)COC[C@@H](c6c7c(c(C)c(OC(C)=O)c64)OCO7)N3[C@@H](C#N)[C@H](C2)N1C)c1[nH]c2ccccc2c1CCN5C(=O)OC=C (stereo partly drawn) [Compound 23]	0.247 µM	11.1 µM		0.118 µM		1.26 µM	11.1 µM	11.1 µM			
C=CCOc1c(OC)c(C)cc2c1[C@@H]1C3[C@@H]4SC[C@]5(NCCc6c5[nH]c5ccccc65)C(=O)COC[C@@H](c5c6c(c(C)c(OC(C)=O)c54)OCO6)N3[C@@H](C#N)[C@H](C2)N1C (stereo partly drawn) [Compound 24]	12.4 µM	12.4 µM	12.4 µM	12.4 µM	12.4 µM	12.4 µM					
C=CCOc1c(OC)c(C)cc2c1[C@@H]1C3[C@@H]4SC[C@]5(C(=O)COC[C@@H](c6c7c(c(C)c(OC(C)=O)c64)OCO7)N3[C@@H](C#N)[C@H](C2)N1C)c1[nH]c2ccccc2c1CCN5CC=C (stereo partly drawn) [Compound 25]	11.8 µM	11.8 µM	11.8 µM	11.8 µM	11.8 µM	11.8 µM					
C=CCOc1c(OC)c(C)cc2c1[C@@H]1C3[C@@H]4SC[C@]5(C(=O)COC[C@@H](c6c7c(c(C)c(OC(C)=O)c64)OCO7)N3[C@@H](O)[C@H](C2)N1C)c1[nH]c2ccccc2c1CCN5CC=C (stereo partly drawn) [Compound 49]	4.5 µM	12.6 µM	12.6 µM	2.64 µM	9.37 µM	4.97 µM			1.99 µM	4.12 µM	8.54 µM
CCCC(=O)Oc1c(C)c2c(c3c1[C@H]1SC[C@]4(NCCc5c4[nH]c4ccccc54)C(=O)COC[C@@H]3N3C1[C@H]1c4c(cc(C)c(OC)c4O)C[C@@H]([C@@H]3C#N)N1C)OCO2 (stereo partly drawn) [Compound 52]	0.0793 µM	12.6 µM	12.6 µM	0.047 µM	943 µM	0.126 µM			0.347 µM	0.00695 µM	0.0126 µM
COc1c(C)cc2c(c1O)[C@@H]1C3[C@@H]4SC[C@]5(NCCc6c5[nH]c5ccccc65)C(=O)COC[C@@H](c5c6c(c(C)c(OC(=O)CCCl)c54)OCO6)N3[C@@H](C#N)[C@H](C2)N1C (stereo partly drawn) [Compound 53]	0.309 µM	1.23 µM	12.3 µM	0.261 µM	12.2 µM	0.784 µM			0.132 µM	12.3 µM	12.3 µM
COc1c(C)cc2c(c1O)[C@@H]1C3[C@@H]4SC[C@]5(NCCc6c5[nH]c5ccccc65)C(=O)COC[C@@H](c5c6c(c(C)c(OC(=O)C(F)(F)F)c54)OCO6)N3[C@@H](C#N)[C@H](C2)N1C (stereo partly drawn) [Compound 56]	0.0474 µM	12.2 µM	12.2 µM	0.0093 µM	3.79 µM	0.236 µM			0.00417 µM	0.00965 µM	0.378 µM
COc1c(C)cc2c(c1OC(=O)OC(C)(C)C)[C@@H]1C3[C@@H]4SC[C@]5(NCCc6c5[nH]c5ccccc65)C(=O)COC[C@@H](c5c6c(c(C)c(OC(=O)OC(C)(C)C)c54)OCO6)N3[C@@H](C#N)[C@H](C2)N1C (stereo partly drawn) [Compound 58]	0.23 µM	10.8 µM	10.8 µM	0.0891 µM	10.8 µM	1.34 µM			0.0102 µM	10.8 µM	10.8 µM
C=COC(=O)Oc1c(C)c2c(c3c1[C@H]1SC[C@]4(NCCc5c4[nH]c4ccccc54)C(=O)COC[C@@H]3N3C1[C@H]1c4c(cc(C)c(OC)c4O)C[C@@H]([C@@H]3C#N)N1C)OCO2 (stereo partly drawn) [Compound 59]	0.0038 µM	0.0184 µM	12.6 µM	0.00266 µM	4.98 µM	2.26 µM			0.004 µM	0.0126 µM	12.6 µM
CCCCCCCC(=O)Oc1c(C)c2c(c3c1[C@H]1SC[C@]4(NCCc5c4[nH]c4ccccc54)C(=O)COC[C@@H]3N3C1[C@H]1c4c(cc(C)c(OC)c4O)C[C@@H]([C@@H]3C#N)N1C)OCO2 (stereo partly drawn) [Compound 61]	11.8 µM	11.8 µM	11.8 µM	11.8 µM	11.8 µM	11.8 µM			0.394 µM	0.805 µM	3.4 µM
CCCC(=O)Oc1c(C)c2c(c3c1[C@H]1SC[C@]4(NCCc5c4[nH]c4ccccc54)C(=O)COC[C@@H]3N3C1[C@H]1c4c(cc(C)c(OC)c4O)C[C@@H]([C@@H]3O)N1C)OCO2 (stereo partly drawn) [Compound 63]	0.00388 µM	0.0128 µM	12.8 µM	0.00312 µM	3.03 µM	0.00953 µM			0.00272 µM	0.0128 µM	12.8 µM
C=CCOC(=O)Oc1c(C)c2c(c3c1[C@H]1SC[C@]4(NCCc5c4[nH]c4ccccc54)C(=O)COC[C@@H]3N3C1[C@H]1c4c(cc(C)c(OC)c4O)C[C@@H]([C@@H]3O)N1C)OCO2 (stereo partly drawn) [Compound 64]	0.00191 µM	0.0125 µM	12.5 µM	0.00164 µM	0.11 µM	0.00683 µM			0.00031 µM	0.0125 µM	12.5 µM
